# Reference: patent US5532227A, “Tetracyclines including non-antimicrobial chemically-modified tetracyclines inhibit excessive glycosylation of different types of collagen and other proteins during diabetes” (The Research Foundation of State University of New York, priority 1994, dated 1996)
# Read-outs that look alike come from different tables or passages of the source.
# Legend:
# [1] = type: in vivo, Sprague-Dawley rat; conditions: for Serum CMT-1 Conc.: 21 days, mean of 4 rats ± S.E.M.; for serum concentration for individual rats: individual rats (data not shown), 30240 min
# Protocol: (§1) Twenty-four adult male Sprague-Dawley rats were weighed (body weight between 350-375 g) and injected through the tail vein with either 0.9% saline (nondiabetic controls, NDC) or with the same solution containing streptozotocin ([…] body weight) to induce diabetes. The diabetic rats were distributed into five experimental groups (n=4 rats per group) and daily administered by oral gavage either 0, 1, 2, 5 or 10 mg of CMT-1 (4-dedimethylaminotetracycline, a chemically-modified non-antimicrobial tetracycline) suspended in 2% carboxymethylcellulose (CMC) for 21 days. The non-diabetic control rats were gavaged with the carrier alone (2% CMC). Urine glucose levels were measured weekly with Tes-Tape (Eli Lily, Inc., Indianapolis, Ind.).
# On the 21st day, the rats were weighed and anesthetized with halothane (Halocarbon Laboratories) before blood samples were collected for serum glucose (Sigma glucose oxidase kit, St. Louis, Mo.) and CMT-1 determinations. The rats were then killed by exsanguination and the skin from the entire torso was dissected, weighed, and minced as described by Schneir et al., Diabetes 31:426 (1982).
# The extraction and HPLC determination of the concentration of CMT-1 in rat serum was carried out as described by Yu et al., Biochem. Med. & Metabolic Biol. 47:10-20 (1992).
# Serum CMT-1 concentration was assayed using the HPLC technique described by Yu et al., BioChem. Med. & Metabolic Biol. 47: 10-20 (1992). […].
# [2] = system: skin collagen; assay: Glycosylation of diabetic rat skin collagen (Example V, Table IV); type: in vivo, Sprague-Dawley rat; conditions: 5 mg daily oral gavage, 21 days
# Protocol: All animals were weighed weekly.
# The subcutaneous muscle layer was removed leaving essentially the dermis. The dermis (skin connective tissue) samples were minced, then homogenized in phosphate buffered saline (4° C.). Following centrifugation (at 9000 rpm, 4° C., 30 min.) of the homogenates, the supernatants were discarded. The pellets were repeatedly washed, then resuspended and extracted at 4° C. overnight in chloroform/methanol to remove lipids. The de-lipidized tissue samples were then washed in 100% methanol, then in 50% methanol. Following the methanol washes, the samples were washed with HEPES buffer (pH 7.4). The skin connective tissue samples (100 mg of each sample) were incubated at 37° C. (24 hours) with chromatographically-purified bacterial collagenase. After 24 hours the reaction mixture was centrifuged at 7000 rpm, room temperature for 30 minutes. Following centrifugation, the supernatants containing the digested collagen were collected. Aliquots of the supernatants were analyzed for glycosylated collagen using a modification of the Isolab Glyco-PROBE™ GSP assay kit. The assay is designed to measure glucose bound to protein which was then converted by Amadori rearrangement to fructosamine. For purposes of the present invention, the sample total protein was increased to compensate for low levels of glycosylated collagen compared to glycosylated serum proteins.
# [3] = system: skin collagen; assay: Solubility of skin collagen in neutral salt and dilute acid, CMT-1 (Example I, FIGS. 2 and 3); type: in vivo, Sprague-Dawley rat; conditions: for increase of collagen solubility in neutral salt solutions / increase of collagen solubility in dilute acid solutions: vs untreated diabetics, 4° C.
# Protocol: as §1
# Skin samples were examined for collagen solubility using the techniques described previously (Golub et al., J. Periodont. Res. 12:402 (1977), Golub et al., Biochim. Biophys. Acta 534:73 (1978)) with some modifications. Except where indicated, all steps were carried out at 4° C.
# Briefly, for the preparation of neutral salt-soluble collagen, minced rat skin was extracted with Tris-HCl buffer (pH 7.4) for 2 days followed by centrifugation at 11,000×g for 20 min. The pellet was subjected to an additional extraction for 18 hr and centrifuged as described above. Both supernatants were then combined and dialyzed exhaustively against 3% acetic acid for 2 days.
# For the preparation of acid-soluble collagen, the pellet was further extracted with 3% acetic acid as described for the neutral salt extraction. The neutral salt and dilute acid extracts were dried with a rotatory evaporator at 60° C. under vacuum.
# Following acid hydrolysis, the dried samples from the two extractions were used for neutral salt- and acid-soluble collagen determinations, while the pellet was used to determine the amount of insoluble collagen.
# The amount of collagen in the three different skin fractions was also estimated. In particular, aliquots of the hydrolysates were repeatedly evaporated and reconstituted with distilled water to remove the hydrochloric acid. After removal of hydrochloric acid, the aliquots Were colorimetrically analyzed for hydroxyproline, an amino acid "marker" of collagen.
# (§2) The data were subject to statistical analysis. The standard error of the mean (S.E.M) was calculated from the standard deviation. The statistical significance between the groups were determined by analysis of variance while the significance of differences between groups was calculated by Tukey's test.
# [4] = system: streptozotocin-diabetic rats; assay: Proteinuria: urine protein excretion in diabetic rats (Example III, FIG. 4); type: in vivo, rat; conditions: recent experiments, data not shown; Golub et al. 1992 cited
# Protocol: Example III was carried out to determine the effect of tetracycline therapy on proteinuria, a parameter of renal damage, in diabetic rats.
# (§3) Streptozotocin-diabetic rats were treated by the daily oral administration of 20 mg minocycline/rat/day over a 4-week period. At the end of the protocol, 24-hour urines were collected to measure protein excretion.
# [5] = system: streptozotocin-diabetic rats; assay: Blood glucose concentration of CMT-1-treated diabetic rats (Example I, FIG. 1); type: in vivo, Sprague-Dawley rat; conditions: oral gavage, 1-10 mg/day, 21 days
# From the text: Each value represents the mean ± S.E.M. for 4 rats per experimental group.
# as §1
# On the 21st day, the rats were weighed and anesthetized with halothane (Halocarbon Laboratories) before blood samples were collected for serum glucose (Sigma glucose oxidase kit, St. Louis, Mo.) and CMT-1 determinations. […]
# as §2
# [6] = system: skin collagen; assay: Glycosylation of skin collagen in diabetic rats, anthrone method (Example IV, FIG. 6); type: in vivo, Sprague-Dawley rat; conditions: 5 mg daily oral gavage, 21 days; effect p<0.05
# Protocol: (§4) Sixteen adult male sprague-Dawley rats, each weighing approximately 350 grams, were divided into four groups 0f four animals per group.
# In addition, the entire skin was dissected from each rat. Samples containing 100mg of each skin were suspended in a Tris-HCl buffer containing 5mM CaCl2 and chromatographically-purified bacterial collagenase and incubated at 37° C. for 4 hours. Following incubation all samples were centrifugated at 35,000×G and the supernatants containing the skin collagen fragments were collected. The skin digest supernatants were analyzed for (1) carbohydrate-attached-to-collagen by the anthrone method, as described by Halhoul and Kleinberg ([…]) Anal. Biochem. 50: 337-343 and (2) total protein using the BioRad Assay, BioRad Chemical Division, Richmond, Calif.
# [7] = system: serum protein; assay: Glycosylated serum proteins in diabetic rats (Example IV, FIG. 5); type: in vivo, Sprague-Dawley rat; conditions: 5 mg daily oral gavage, 21 days; effect p<0.05
# From the text: (Control vs. Diabetic p<0.01, Diabetic vs. Diabetic treated with Doxycycline p<0.05, Diabetic vs. Diabetic treated with CMT-1 (4-dedimethyiaminotetracycline) p<0.05).
# as §4
# [8] = system: streptozotocin-diabetic rats; assay: Other signs of diabetes (hyperglycemia, glucosuria, polyuria) in diabetic rats (Example III); type: in vivo, rat
# Protocol: as §3
smiles,measurement,setting,value
"CC1(O)c2cccc(O)c2C(=O)C2=C(O)C3(O)C(=O)C(C(N)=O)=C(O)CC3CC21 (stereo not drawn) [CMT-1, 4-dedimethylaminotetracycline]",Serum CMT-1 Conc.,[1]; 1 mg CMT/day oral,0.75 ± 0.04 µg/mL
same,serum concentration for individual rats,[1]; 1 mg oral dose,600 ng/mL
same,Serum CMT-1 Conc.,[1]; 2 mg CMT/day oral,1.75 ± 0.05 µg/mL
same,Serum CMT-1 Conc.,[1]; 5 mg CMT/day oral,3.90 ± 0.16 µg/mL
same,Serum CMT-1 Conc.,[1]; 10 mg CMT/day oral,5.80 ± 0.25 µg/mL
same,serum concentration for individual rats,[1]; 10 mg oral dose,6500 ng/mL
same,mM Fructosamine/mg protein (Mean ± SE),"[2]; NDC 0.027, untreated diabetic 0.377",0.123 ± 0.011 mM Fructosamine/mg protein
same,Reduction of glycosylation in treated diabetics (%),[2]; vs untreated diabetic control,67.4%
same,increase of collagen solubility in neutral salt solutions,[3]; 1 mg CMT/day oral,10%
same,increase of collagen solubility in dilute acid solutions,[3]; 1 mg/day oral,18%
same,increase of collagen solubility in dilute acid solutions,[3]; 10 mg/day oral,174%
same,increase of collagen solubility in neutral salt solutions,[3]; 10 mg/day oral,91%
same,quality of collagen in the skin (inhibition of excess crosslinking),"[3]; diabetic rats, oral",normalized
same,proteinuria in diabetic rats,[4],a reduction in proteinuria
same,severity of hyperglycemia (blood glucose concentration),[5],did not significantly alter the severity of hyperglycemia
same,glycosylation of skin collagen,[6],returned both of these parameters of abnormal glycosylation to essentially normal levels
same,fructosamine attached to serum protein (glycosylated serum protein),[7],returned both of these parameters of abnormal glycosylation to essentially normal levels
same,"other signs of diabetes including hyperglycemia, glucosuria and polyuria",[8],Neither treatment with minocycline nor CMT-1 reduced the other signs of diabetes
